According to patent publication US4924002A, “Novel process for the preparation of pyrazoles from isoxazoles” (Warner-Lambert Company, priority 1989, dated 1990):

Tests used:
[1] = Ultraviolet absorbing properties compared with p-aminobenzoic acid; type: physicochemical; design: UV max: unit not given here; settings: for α: ultraviolet absorption
Experimental: The ultraviolet absorbing properties of the compounds of the present invention is generally shown by a comparison with p-aminobenzoic acid which is the active ingredient in most commercial sunscreens. Such properties are within the ultraviolet absorbing ranges of […] range critical to effectiveness. A representative compound of the invention is compared to p-aminobenzoic acid in the following Table.

cyclooxygenase = molecular target: T1, cyclooxygenase (Rattus norvegicus, UniProt Q63921); experiment: ARBC RBL-1 whole cell cyclooxygenase assay (PGF2α by RIA); type: cell-based; settings: RBL-1 intact cells, 5 μM A23187, PGF2α
T1 construct: host or cells: RBL-1 (rat basophilic leukemia)
T1 sequence (Q63921 27-602): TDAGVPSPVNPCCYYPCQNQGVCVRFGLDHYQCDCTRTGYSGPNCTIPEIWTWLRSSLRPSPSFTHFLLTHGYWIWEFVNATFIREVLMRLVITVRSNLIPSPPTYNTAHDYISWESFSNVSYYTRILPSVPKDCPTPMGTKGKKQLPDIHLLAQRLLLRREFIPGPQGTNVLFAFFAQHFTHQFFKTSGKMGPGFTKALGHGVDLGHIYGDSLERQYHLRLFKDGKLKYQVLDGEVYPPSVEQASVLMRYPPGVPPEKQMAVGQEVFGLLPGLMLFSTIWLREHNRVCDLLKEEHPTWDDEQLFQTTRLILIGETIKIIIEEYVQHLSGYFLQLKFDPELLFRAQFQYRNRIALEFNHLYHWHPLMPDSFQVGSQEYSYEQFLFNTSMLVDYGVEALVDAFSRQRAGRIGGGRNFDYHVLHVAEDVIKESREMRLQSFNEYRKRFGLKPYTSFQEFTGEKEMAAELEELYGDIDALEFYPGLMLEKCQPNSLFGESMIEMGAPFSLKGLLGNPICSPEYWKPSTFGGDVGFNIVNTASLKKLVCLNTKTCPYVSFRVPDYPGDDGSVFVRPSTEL
Experimental: (§1) ARBL/ARBC Whole Cell 5-Lipoxygenase and Cyclooxygenase Assays
(§2) The rat basophilic leukemia cell line (RBL-1) was obtained from the American Type Culture Collection (Rockville, Md.).
(§3) Radioimmuno assay (RIA) kits of LTB4 and PGF2α were obtained from Amersham (Arlington Heights, Ill.) and Seragen (Boston, Mass.) respectively.
(§4) All tissue culture media were obtained from GIBCO (Grand Island, N.Y.).
(§5) RBL-1 cells were grown in culture (suspension) in Eagle's minimum essential medium supplemented with 12% fetal bovine serum and 1:100 antibiotic-antimycotic mixture at 37° C. in an incubator supplied with air-5% carbon dioxide. Cells were harvested by centrifugation. They were washed with cold phosphate buffered saline pH 7.4 (PBS; NaCl, 7.1 g; Na2 HPO4, 1.15 g; KH2 PO4, 0.2 g; and KCl, 0.2 g/L). […] Calcium ionophore A23187 (5 μM) was added and cells were incubated for seven minutes at 37° C. The reaction was stopped by chilling the tubes in ice for ten minutes. Cells were separated by centrifugation and the supernatant was stored at -20°. Aliquots (100 μl) were analyzed for LTB4 and PGF2α using radioimmuno assay kits as provided by the supplier.

5-lipoxygenase = molecular target: T2, 5-lipoxygenase (Rattus norvegicus, UniProt P12527); experiment: ARBL RBL-1 whole cell 5-lipoxygenase assay (LTB4 by RIA); type: cell-based; settings: RBL-1 intact cells, 5 μM A23187, LTB4
T2 construct: host or cells: RBL-1 (rat basophilic leukemia)
T2 sequence (P12527 1-673): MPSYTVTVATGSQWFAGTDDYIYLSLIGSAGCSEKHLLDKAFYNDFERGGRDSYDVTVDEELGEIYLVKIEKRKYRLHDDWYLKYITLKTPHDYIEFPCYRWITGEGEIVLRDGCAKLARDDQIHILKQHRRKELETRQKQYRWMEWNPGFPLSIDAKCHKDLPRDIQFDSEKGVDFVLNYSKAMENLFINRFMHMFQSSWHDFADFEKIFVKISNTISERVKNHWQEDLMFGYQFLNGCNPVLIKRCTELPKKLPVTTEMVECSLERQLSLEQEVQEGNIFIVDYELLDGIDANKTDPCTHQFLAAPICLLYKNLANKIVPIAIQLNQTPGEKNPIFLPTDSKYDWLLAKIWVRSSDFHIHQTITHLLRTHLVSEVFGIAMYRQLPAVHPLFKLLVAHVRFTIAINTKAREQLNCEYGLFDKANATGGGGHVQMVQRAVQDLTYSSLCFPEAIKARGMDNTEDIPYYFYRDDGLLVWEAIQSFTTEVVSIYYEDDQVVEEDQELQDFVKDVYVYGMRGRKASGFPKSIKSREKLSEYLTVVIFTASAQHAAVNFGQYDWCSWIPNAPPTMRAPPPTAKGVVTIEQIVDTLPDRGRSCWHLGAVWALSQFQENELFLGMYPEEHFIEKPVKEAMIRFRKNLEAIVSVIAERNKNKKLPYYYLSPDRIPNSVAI
Experimental: as §1, §2, §3, §4, §5

| SMILES | UV max [1] | α [1] | IC50 (cyclooxygenase) | IC50 (5-lipoxygenase) |
| --- | --- | --- | --- | --- |
| COC(=O)C(=Cc1cc(C(C)(C)C)c(O)c(C(C)(C)C)c1)c1cc(C)no1 [Example 46, 5-[α-Carbomethoxy-β-(4'-hydroxy-3',5'-bis(1,1-dimethylethyl)phenyl)ethenyl]-3-methylisoxazole] |  |  | 2 µM | 10 µM |
| Cc1cc(C=Cc2cc(Br)c(O)c(Br)c2)no1 [Example 54B] |  |  | 4.2 µM | 3.3 µM |
| Nc1ccc(C(=O)O)cc1 [p-aminobenzoic acid, reference compound] |  | 132.2 |  |  |

Second part, the compound after the results:

| UV max [1] | α [1] | IC50 (cyclooxygenase) | IC50 (5-lipoxygenase) | SMILES |
| --- | --- | --- | --- | --- |
| 292 | 111.1 |  |  | COc1cc(C=Cc2cc(C)[nH]n2)ccc1O [Example 5, 3-[β-(4'-Hydroxy-3'-methoxyphenyl)ethenyl]-5-methyl-pyrazole] |
|  |  | 14.5 µM | 5.7 µM | Cc1cc(C=Cc2cc(Br)c(O)c(Br)c2)n[nH]1 [Example 58, 3-[β-(4'-Hydroxy-3',5'-dibromophenyl)ethenyl]-5-methylpyrazole] |
